What was measured:
phosphodiesterase 4A = biological target: T1, phosphodiesterase 4A (Homo sapiens, UniProt P27815); assay: Recombinant human PDE4A assay; type: biochemical; details: for inhibition at 0.1 µM: 10^−7 M, read-out: Enzyme Inhibitory Activity (%, 10^−7 M)
T1 construct: made in house; host or cells: E. coli

[1] = system: cAMP-specific phosphodiesterase (PDE IV); assay: Inhibition of the PDE IV enzyme derived from a dog trachea; type: biochemical; details: test compound 10^−6 M; PDE IV from dog tracheal smooth muscle; substrate cAMP 1 μM
Method in brief: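 Enzyme purified from dog tracheal smooth muscle; [3H]cAMP substrate at 1 μM final in 50 mM BES pH 7.2, 1 mM MgCl2, 0.1 mg/ml soybean trypsin inhibitor, 30° C for 10–30 min, 1.7% DMSO final. After HCl stop, product converted to adenosine by 5′-nucleotidase, separated on DEAE-Sephadex and scintillation-counted.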

T1 sequence (P27815 224-886 limits assumed): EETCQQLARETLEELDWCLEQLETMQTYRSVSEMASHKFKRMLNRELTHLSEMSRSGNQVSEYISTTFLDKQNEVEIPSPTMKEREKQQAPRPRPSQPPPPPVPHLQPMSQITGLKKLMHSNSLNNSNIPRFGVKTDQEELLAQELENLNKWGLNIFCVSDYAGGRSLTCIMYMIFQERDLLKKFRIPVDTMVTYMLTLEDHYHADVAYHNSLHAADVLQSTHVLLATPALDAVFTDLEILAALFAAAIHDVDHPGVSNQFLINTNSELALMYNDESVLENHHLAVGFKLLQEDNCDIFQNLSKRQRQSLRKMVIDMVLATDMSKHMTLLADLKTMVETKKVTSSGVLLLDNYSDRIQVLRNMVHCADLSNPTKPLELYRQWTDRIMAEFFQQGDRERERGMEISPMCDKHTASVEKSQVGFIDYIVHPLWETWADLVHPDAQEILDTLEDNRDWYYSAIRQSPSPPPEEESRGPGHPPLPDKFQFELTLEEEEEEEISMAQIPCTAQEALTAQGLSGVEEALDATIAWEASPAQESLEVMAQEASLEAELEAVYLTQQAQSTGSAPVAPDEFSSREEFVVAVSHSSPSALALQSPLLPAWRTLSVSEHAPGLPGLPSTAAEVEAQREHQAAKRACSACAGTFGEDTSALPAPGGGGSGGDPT

COc1ccc(C(=O)Cc2c(Cl)cccc2Cl)c2cc(C(=O)c3ccccc3)oc12 [Compound 163, 2-Benzoyl-4-[2-(2,6-dichlorophenyl)-1-oxoethyl]-7-methoxybenzofuran]
inhibition at 0.1 µM (phosphodiesterase 4A): 96% | melting point: 223 to 224 °C

COc1ccc(/C=C/c2c(Cl)cncc2Cl)c2cc(-c3ccccn3)oc12 [Compound 84, (E)-4-[2-(3,5-Dichloro-4-pyridyl)ethenyl]-7-methoxy-2-(2-pyridyl)benzofuran]
inhibition at 0.1 µM (phosphodiesterase 4A): 98% | melting point: 157 to 158 °C

COc1ccc(C(=O)Cc2c(Cl)cncc2Cl)c2c(CC(=O)OCCc3ccccc3)coc12 [Compound 153, 4-[2-(3,5-Dichloro-4-pyridyl)-1-oxoethyl]-7-methoxy-3-phenethyloxycarbonylmethylbenzofuran]
inhibition at 0.1 µM (phosphodiesterase 4A): 94% | melting point: 183 to 184 °C

COc1ccc(C(=O)Cc2c(Cl)cccc2Cl)c2cc(C(=O)Nc3cccc(F)c3)oc12 [Compound 161, 4-[2-(2,6-Dichlorophenyl)-1-oxoethyl]-2-[(3-fluorophenyl)aminocarbonyl]-7-methoxybenzofuran]
inhibition at 0.1 µM (phosphodiesterase 4A): 87% | melting point: 251 to 252 °C

COc1ccc(C(=O)Cc2c(Cl)cncc2Cl)c2cc(-c3ccncc3)oc12.Cl.Cl [Compound 114, 4-[2-(3,5-Dichloro-4-pyridyl)-1-oxoethyl]-7-methoxy-2-(4-pyridyl)benzofuran.2 hydrochloride]
Enzyme Inhibitory Activity (%, 10^−7 M) (phosphodiesterase 4A): 100%

COc1ccc(C(=O)Cc2ccncc2)c2c1OC1(CCCCC1)C2.Cl [Compound 102, 7-Methoxy-4-[1-oxo-2-(4-pyridyl)ethyl]-spiro[2,3-dihydrobenzofuran-2,1′-cyclohexane].hydrochloride]
Enzyme Inhibitory Activity (%, 10^−7 M) (phosphodiesterase 4A): 95%

COc1ccc(C(=O)Cc2c(Cl)cncc2Cl)c2c(CC(=O)NCc3ccccc3)coc12 [Compound 155, 3-Benzylaminocarbonylmethyl-4-[2-(3,5-dichloro-4-pyridyl)-1-oxoethyl]-7-methoxybenzofuran]
inhibition at 0.1 µM (phosphodiesterase 4A): 96% | melting point: 244 to 246 °C

COc1ccc(C=Cc2c(Cl)cncc2Cl)c2c1OC1(CCCC1)O2 [Compound 138, 7-[2-(3,5-Dichloro-4-pyridyl)ethenyl]-4-methoxy-spiro[1,3-benzodioxole-2,1′-cyclopentane]]
inhibition at 0.1 µM (phosphodiesterase 4A): 100% | melting point: 100 to 101 °C

CCOC(=O)c1coc2c(OC)ccc(C(=O)Cc3c(Cl)cncc3Cl)c12 [Compound 159, Ethyl 4-[2-(3,5-dichloro-4-pyridyl)-1-oxoethyl]-7-methoxybenzofuran-3-carboxylate]
inhibition at 0.1 µM (phosphodiesterase 4A): 99%

COc1ccc(C(=O)Nc2c(Cl)cccc2Cl)c2cc(C(=O)c3ccccc3)oc12 [Compound 168, 2-Benzoyl-4-[(2,6-dichiorophenyl)aminocarbonyl]-7-methoxybenzofuran]
Enzyme Inhibitory Activity (%, 10^−7 M) (phosphodiesterase 4A): 96%

COc1ccc(C(=O)Nc2c(Cl)cncc2Cl)c2c1OC1(C=C2)CCCC1 [Compound 123, 5-(3,5-Dichloro-4-pyridylaminocarbonyl)-8-methoxy-spiro[benzopyran-2,1′-cyclopentane]]
inhibition at 0.1 µM (phosphodiesterase 4A): 87% | melting point: 129 to 131 °C

COc1ccc(C(=O)Nc2c(Cl)cncc2Cl)c2c1OC(C)(C)O2 [Compound 199, 7-(3,5-dichloro-4-pyridylaminocarbonyl)-4-methoxy-2,2-dimethyl-3,4-benzodioxole]
Enzyme Inhibitory Activity (%, 10^−7 M) (phosphodiesterase 4A): 57%

COc1ccc(C(=O)Cc2ccncc2)c2cc(C(=O)Nc3ccccc3)oc12.Cl [Compound 165, 7-Methoxy-4-[1-oxo-2-(4-pyridyl)ethyl]-2-(phenylaminocarbonyl)benzofuran.hydrochloride]
Enzyme Inhibitory Activity (%, 10^−7 M) (phosphodiesterase 4A): 64%

COc1ccc(C(=O)Cc2c(Cl)cncc2Cl)c2c1OC1(CCCCC1)C2 [Compound 101, 4-[2-(3,5-Dichloro-4-pyridyl)-1-oxoethyl]-7-methoxy-spiro[2,3-dihydrobenzofuran-2,1′-cyclohexane]]
inhibition at 0.1 µM (phosphodiesterase 4A): 100% | melting point: 149 to 151 °C

COc1ccc(C(=O)Cc2c(Cl)cncc2Cl)c2c(CC(=O)OCc3ccccc3[N+](=O)[O-])coc12 [Compound 154, 4-[2-(3,5-Dichloro-4-Pyridyl)-1-oxoethyl]-7-methoxy-3-[(2-nitrobenzyl)oxycarbonylmethyl]benzofuran]
inhibition at 0.1 µM (phosphodiesterase 4A): 92% | melting point: 200 to 201 °C

COc1ccc(C(=O)Cc2c(Cl)cncc2Cl)c2c1OC1(CCCCCC1)O2 [Compound 177, 7-[2-(3,5-Dichloro-4-pyridyl)-1-oxoethyl)-4-methoxy-spiro[1,3-benzodioxole-2,1′-cycloheptane]]
inhibition at 0.1 µM (phosphodiesterase 4A): 93%

COc1ccc(C(=O)Nc2c(Cl)cncc2Cl)c2c1OC1(CCCC1)O2 [Compound 134, 7-(3,5-Dichloro-4-pyridylaminocarbonyl)-4-methoxy-spiro[1,3-benzodioxole-2,1′-cyclopentane]]
inhibition at 0.1 µM (phosphodiesterase 4A): 100% | melting point: 168 to 170 °C

COc1ccc(C(=O)Cc2ccncc2)c2c1OC1(CCCC1)O2.Cl [Compound 141, 4-Methoxy-7-[1-oxo-2-(4-pyridyl)ethyl]-spiro[1,3-benzodioxole-2,1′-cyclopentane].hydrochloride]
Enzyme Inhibitory Activity (%, 10^−7 M) (phosphodiesterase 4A): 76%

COc1ccc(C(=O)Cc2c(Cl)cncc2Cl)c2c(CC(=O)Nc3cccnc3)coc12 [Compound 156, 4-[2-(3,5-Dichloro-4-pyridyl)-1-oxoethyl]-7-methoxy-3-[(3-pyridyl)aminocarbonylmethyl]benzofuran]
inhibition at 0.1 µM (phosphodiesterase 4A): 90% | melting point: 252 to 255 °C

COc1ccc(/C=C/c2c(Cl)cncc2Cl)c2c1OCCCO2 [Compound 191, (E)-6-[2-(3,5-dichloro-4-pyridyl)ethenyl]-3,4-dihydro-9-methoxy-2H-1,5-benzodioxepin]
inhibition at 0.1 µM (phosphodiesterase 4A): 84% | melting point: 118 to 120 °C

COc1ccc(C(=O)Cc2c(Cl)c[n+]([O-])cc2Cl)c2c1OCCCCO2 [Compound 195, 7-[2-(3,5-dichloro-N-oxo-4-pyridyl)-1-oxoethyl]-10-methoxy-2,3,4,5-tetrahydro-1,6-benzodioxocin]
Enzyme Inhibitory Activity (%, 10^−7 M) (phosphodiesterase 4A): 93%

COc1ccc(C(=O)Cc2c(Cl)cncc2Cl)c2c(CC(=O)NCc3ccccn3)coc12.Cl.Cl [Compound 157, 4-[2-(3,5-Dichloro-4-pyridyl)-1-oxoethyl]-7-methoxy-3-[(2-pyridylmethyl)aminocarbonylmethyl]benzofuran.2 hydrochloride]
Enzyme Inhibitory Activity (%, 10^−7 M) (phosphodiesterase 4A): 89%

COc1ccc(C(=O)Cc2c(Cl)cncc2Cl)c2c1OCCCO2 [Compound 189, 6-[2-(3,5-dichloro-4-pyridyl)-1-oxoethyl]-3,4-dihydro-9-methoxy-2H-1,5-benzodioxepin]
inhibition at 0.1 µM (phosphodiesterase 4A): 84% | melting point: 150 to 151 °C

CCOC(=O)/C(=C/c1ccc(OC)c2c1CC(C)(C)O2)c1ccncc1 [Compound 87, (E)-4-[2-Ethoxycarbonyl-2-(4-pyridyl)ethenyl]-7-methoxy-2,2-dimethyl-2,3-dihydrobenzofuran]
Enzyme Inhibitory Activity (%, 10^−6 M) [1]: 61% | melting point: 98 to 100 °C

CCCCc1cc2c(C(=O)Nc3c(Cl)cncc3Cl)ccc(OC)c2o1 [Compound 36, 2-Butyl-4-(3,5-dichloropyridin-4-ylaminocarbonyl)-7-methoxybenzofuran]
Enzyme Inhibitory Activity (%, 10^−6 M) [1]: 87% | melting point: 160 to 164 °C

COc1ccc(C(=O)Cc2c(Cl)cncc2Cl)c2c1OC1(CCCC1)C2 [Compound 99, 4-[2-(3,5-Dichloro-4-pyridyl)-1-oxoethyl]-7-methoxy-spiro[2,3-dihydrobenzofuran-2,1′-cyclopentane]]
Enzyme Inhibitory Activity (%, 10^−6 M) [1]: 91% | melting point: 159 to 162 °C

COc1ccc(C(=O)Cc2c(Cl)cncc2Cl)c2c1OCCCCO2 [Compound 194, 7-[2-(3,5-dichloro-4-pyridyl)-1-oxoethyl]-10-methoxy-2,3,4,5-tetrahydro-1,6-benzodioxocin]
inhibition at 0.1 µM (phosphodiesterase 4A): 92% | melting point: 142 to 143 °C

COc1ccc(C(=O)Nc2c(Cl)cncc2Cl)c2c1OC(C)(C)CC2 [Compound 122, 5-(3,5-Dichloro-4-pyridylaminocarbonyl)-8-methoxy-2,2-dimethyl-3,4-dihydrobenzopyran]
Enzyme Inhibitory Activity (%, 10^−6 M) [1]: 92% | melting point: 155 to 156 °C

COc1ccc(C(=O)Nc2ccccc2)c2c1OCC2CC(=O)OCc1ccccc1 (racemic) [Compound 15, (±)-3-Benzyloxycarbonylmethyl-7-methoxy-4-phenylaminocarbonyl-2,3-dihydrobenzofuran]
Enzyme Inhibitory Activity (%, 10^−6 M) [1]: 75% | melting point: 179 to 180 °C

COc1ccc(C(=O)Cc2c(Cl)cncc2Cl)c2c1OC1(CCCC1)O2 [Compound 140, 7-[2-(3,5-Dichloro-4-pyridyl)-1-oxoethyl]-4-methoxy-spiro[1,3-benzodioxole-2,1′-cyclopentane]]
inhibition at 0.1 µM (phosphodiesterase 4A): 100%

COc1ccc(C(=O)Nc2c(Cl)cncc2Cl)c2cc(C(=O)c3ccccc3)oc12 [Compound 35]
Enzyme Inhibitory Activity (%, 10^−7 M) (phosphodiesterase 4A): 100%

COc1ccc(C(=O)Cc2c(Cl)cccc2Cl)c2cc(C(=O)c3ccccn3)oc12 [Compound 160, 4-[2-(2,6-Dichlorophenyl)-1-oxoethyl]-7-methoxy-2-(2-pyridylcarbonyl)benzofuran]
inhibition at 0.1 µM (phosphodiesterase 4A): 91% | melting point: 228 to 229 °C

COc1ccc(C(=O)Nc2c(Cl)cncc2Cl)c2c1OCC2CC(=O)O (racemic) [Compound 9, (±)-3-Carboxymethyl-4-(3,5-dichloro-4-pyridylaminocarbonyl)-7-methoxy-2,3-dihydrobenzofuran]
Enzyme Inhibitory Activity (%, 10^−6 M) [1]: 22% | melting point: 259 to 263 °C

CCOC(=O)C(C#N)=Cc1ccc(OC)c2c1CC(C)(C)O2 [Compound 89, 4-(2-Cyano-2-ethoxycarbonylethenyl)-7-methoxy-2,2-dimethyl-2,3-dihydrobenzofuran]
Enzyme Inhibitory Activity (%, 10^−6 M) [1]: 33% | melting point: 112 to 117 °C
